The series relates to BHK-21 cells. Put plainly: Cell viability per well (percentage of cells remaining) observed under a microscope in the drug screening test. The note with it: infected BHK-21 cells with drug, 36 hours. In kind it is cell-based, hamster. The method, then:
(1) A 96-well plate for BHK-21 cells was prepared. The cells were planked at 10^4 cells/well. The plate was cultured in a cell incubator with a temperature of 37° C. and a CO2 concentration of 5%. The drug screening test was conducted when the cells grew to 40-50%. The drug to be tested was dissolved in dimethyl sulfoxide. Then the drug was diluted to 100 μM with DMEM medium containing 2% FBS. After that, the drug was subjected to serial 2-fold dilution to obtain the dilution gradient with the concentration of 100 μM, 50 μM, 25 μM, 12.5 μM, 6.25 μM, 3.125 μM, and 1.5625 μM, respectively (the concentration of DMSO in the diluted drug shall be <0.1%).
(2) The original culture medium was removed from the 96-well plate. The virus was inoculated into the 96-well plate at an MOI of 0.01 and a volume of 100 μL/well. At the same time, the diluted drugs to be tested were respectively added into the same 96-well plate at 100 μL/well and mixed well with the virus solution. The plate was incubated in a cell incubator with a temperature of 37° C. and a CO2 concentration of 5% for 36 hours before detection.
(4) Cell viability per well (and the percentage of cells remaining per well) was observed under a microscope and the half-maximal effect concentration (EC50) of the drug was calculated using GraphPad Prism 9 software and an EC50 graph was plotted.

Molecule `CC(C)=CCC(OC(=O)C=C(C)C)C1=CC(=O)c2c(O)ccc(O)c2C1=O` (stereo not drawn) [Beta, beta-dimethyl acryl shikonin] gave a Cell viability of 70%.
Still for that read-out and setting: as for `C[C@@]12C(=O)OC(=O)[C@]1(C)[C@H]1CC[C@@H]2O1` [Cantharidin], the figure is 50%.
Regarding `C[C@H](CCC(=O)O)[C@H]1CC[C@H]2[C@@H]3[C@H](O)C[C@@H]4C[C@H](O)CC[C@]4(C)[C@H]3CC[C@]12C` [Chenodeoxycholic acid, reference compound], the Cell viability came out at 70%.
Turning to `COc1ccc(-c2cc(=O)c3c(O)cc(O[C@@H]4O[C@H](CO[C@@H]5O[C@@H](C)[C@H](O)[C@@H](O)[C@H]5O)[C@@H](O)[C@H](O)[C@H]4O)cc3o2)cc1O` [Diosmin, reference compound], the Cell viability was 100%. This molecule displayed a Cell viability (listed as diosmin) of 100%.
In the case of `Oc1cc(O)c2c(c1)O[C@H](c1cc(O)c(O)c(O)c1)[C@H](O)C2` [Epigallocatechol], the Cell viability stood at 0%.
On the same count and under the same terms, to `CC(C)=CCc1c(O)ccc(C(=O)/C=C/c2ccc(O)cc2)c1O` [Isobavachalcone] belongs 30%; to `CC(C)=CCc1cc2c(cc1O)oc(=O)c1c3ccc(O)cc3oc21` [Psoralidin], 50%.
With `C=C[C@H]1[C@H](O[C@@H]2O[C@H](CO)[C@@H](O)[C@H](O)[C@H]2O)OC=C(C(=O)OC)[C@H]1CC(=O)O` [Secoxyloganin], the Cell viability worked out at 100%. Also, the Cell viability (listed as secoxyloganin) worked out at 100%.
In the case of Clinodiside Aogenin A, the Cell viability was 100%. In addition, the Cell viability (listed as clinodiside A) was 100%.

The values are drawn from patent publication US12013390B2, “EBIV nucleic acid composition and application thereof” (Wuhan Institute of Virology, Chinese Academy of Sciences, priority 2022, dated 2024).
